The source made the active and inactive calls. Rule as the data show it, for most assays here: actives have a measured Kd and inactives only a lower limit.
Key:
[1] = target: Atypical kinase COQ8A, mitochondrial (Homo sapiens, UniProt Q8NI60)
[2] = target: Adenylate kinase 2, mitochondrial (Homo sapiens, UniProt P54819)
[3] = target: Calcium/calmodulin-dependent protein kinase type II subunit gamma (Homo sapiens, UniProt Q13555)
[4] = target: Cyclin-dependent kinase 5 (Homo sapiens, UniProt Q00535)
Chain of Cyclin-dependent kinase 5 (Q00535 whole entry, the tested form may be a part): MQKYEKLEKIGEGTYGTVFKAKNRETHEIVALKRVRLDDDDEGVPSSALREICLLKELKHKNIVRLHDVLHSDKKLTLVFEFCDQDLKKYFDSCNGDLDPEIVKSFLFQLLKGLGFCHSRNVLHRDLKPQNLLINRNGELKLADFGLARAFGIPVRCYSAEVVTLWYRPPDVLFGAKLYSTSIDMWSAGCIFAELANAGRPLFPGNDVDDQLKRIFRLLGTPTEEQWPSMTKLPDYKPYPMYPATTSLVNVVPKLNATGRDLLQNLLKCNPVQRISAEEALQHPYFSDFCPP

[5] = target: Epithelial discoidin domain-containing receptor 1 (Homo sapiens, UniProt Q08345)
Chain of Epithelial discoidin domain-containing receptor 1 (Q08345 whole entry, the tested form may be a part): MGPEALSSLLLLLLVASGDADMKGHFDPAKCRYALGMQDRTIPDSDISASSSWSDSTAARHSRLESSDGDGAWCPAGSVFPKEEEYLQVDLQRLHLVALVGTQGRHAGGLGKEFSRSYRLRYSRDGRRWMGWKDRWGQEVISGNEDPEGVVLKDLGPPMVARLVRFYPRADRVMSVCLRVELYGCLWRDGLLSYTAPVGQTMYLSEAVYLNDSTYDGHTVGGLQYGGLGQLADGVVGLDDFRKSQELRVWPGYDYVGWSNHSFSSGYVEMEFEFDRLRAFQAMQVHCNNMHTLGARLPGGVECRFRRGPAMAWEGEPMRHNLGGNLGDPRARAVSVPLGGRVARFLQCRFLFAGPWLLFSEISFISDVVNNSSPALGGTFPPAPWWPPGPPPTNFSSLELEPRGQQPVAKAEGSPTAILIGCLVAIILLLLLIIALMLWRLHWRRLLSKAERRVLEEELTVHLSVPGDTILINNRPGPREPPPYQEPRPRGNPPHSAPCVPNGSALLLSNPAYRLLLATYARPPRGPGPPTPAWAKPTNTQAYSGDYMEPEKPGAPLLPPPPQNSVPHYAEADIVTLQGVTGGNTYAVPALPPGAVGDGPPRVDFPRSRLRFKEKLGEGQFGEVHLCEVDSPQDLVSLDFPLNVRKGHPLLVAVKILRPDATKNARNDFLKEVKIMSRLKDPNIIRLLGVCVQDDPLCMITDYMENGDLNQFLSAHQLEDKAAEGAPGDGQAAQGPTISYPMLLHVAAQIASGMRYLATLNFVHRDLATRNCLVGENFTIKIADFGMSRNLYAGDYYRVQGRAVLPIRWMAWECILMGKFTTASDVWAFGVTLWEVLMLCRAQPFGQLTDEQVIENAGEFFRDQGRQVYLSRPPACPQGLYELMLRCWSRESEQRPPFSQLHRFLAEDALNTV

[6] = target: T1, Delta(24)-sterol reductase (Homo sapiens, UniProt Q15392)
T1 sequence (Q15392 whole entry): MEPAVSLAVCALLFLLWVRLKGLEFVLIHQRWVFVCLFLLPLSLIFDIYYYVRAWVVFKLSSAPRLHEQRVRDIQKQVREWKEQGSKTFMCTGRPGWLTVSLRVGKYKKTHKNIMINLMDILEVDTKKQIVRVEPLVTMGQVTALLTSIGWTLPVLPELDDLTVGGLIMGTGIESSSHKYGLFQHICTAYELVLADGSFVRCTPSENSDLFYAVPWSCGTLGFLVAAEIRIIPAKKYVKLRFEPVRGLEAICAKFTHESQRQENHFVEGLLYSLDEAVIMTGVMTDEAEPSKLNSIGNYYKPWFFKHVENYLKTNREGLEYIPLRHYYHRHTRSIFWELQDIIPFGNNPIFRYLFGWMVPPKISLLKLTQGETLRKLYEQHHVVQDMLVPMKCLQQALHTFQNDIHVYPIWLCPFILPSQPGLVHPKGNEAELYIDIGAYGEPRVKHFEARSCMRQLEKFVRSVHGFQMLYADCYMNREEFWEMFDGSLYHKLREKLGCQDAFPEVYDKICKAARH

[7] = target: Tyrosine-protein kinase FRK (Homo sapiens, UniProt P42685)
Chain of Tyrosine-protein kinase FRK (P42685 whole entry): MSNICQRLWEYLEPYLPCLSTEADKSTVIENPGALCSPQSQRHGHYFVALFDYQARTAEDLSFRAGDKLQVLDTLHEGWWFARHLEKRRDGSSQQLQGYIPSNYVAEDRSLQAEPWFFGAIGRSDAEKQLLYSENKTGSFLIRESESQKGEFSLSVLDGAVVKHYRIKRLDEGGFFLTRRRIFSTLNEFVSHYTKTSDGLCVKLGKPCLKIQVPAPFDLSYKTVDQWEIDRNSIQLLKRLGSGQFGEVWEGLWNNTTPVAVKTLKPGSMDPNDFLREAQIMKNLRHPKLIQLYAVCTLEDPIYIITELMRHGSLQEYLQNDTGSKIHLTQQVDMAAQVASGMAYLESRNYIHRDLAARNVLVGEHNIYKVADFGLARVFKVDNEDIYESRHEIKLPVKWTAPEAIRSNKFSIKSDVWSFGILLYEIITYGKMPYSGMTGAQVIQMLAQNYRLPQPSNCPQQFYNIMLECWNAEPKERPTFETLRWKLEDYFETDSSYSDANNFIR

[8] = target: T2, Mitogen-activated protein kinase kinase kinase kinase 3 (Homo sapiens, UniProt Q8IVH8)
T2 sequence (Q8IVH8 whole entry): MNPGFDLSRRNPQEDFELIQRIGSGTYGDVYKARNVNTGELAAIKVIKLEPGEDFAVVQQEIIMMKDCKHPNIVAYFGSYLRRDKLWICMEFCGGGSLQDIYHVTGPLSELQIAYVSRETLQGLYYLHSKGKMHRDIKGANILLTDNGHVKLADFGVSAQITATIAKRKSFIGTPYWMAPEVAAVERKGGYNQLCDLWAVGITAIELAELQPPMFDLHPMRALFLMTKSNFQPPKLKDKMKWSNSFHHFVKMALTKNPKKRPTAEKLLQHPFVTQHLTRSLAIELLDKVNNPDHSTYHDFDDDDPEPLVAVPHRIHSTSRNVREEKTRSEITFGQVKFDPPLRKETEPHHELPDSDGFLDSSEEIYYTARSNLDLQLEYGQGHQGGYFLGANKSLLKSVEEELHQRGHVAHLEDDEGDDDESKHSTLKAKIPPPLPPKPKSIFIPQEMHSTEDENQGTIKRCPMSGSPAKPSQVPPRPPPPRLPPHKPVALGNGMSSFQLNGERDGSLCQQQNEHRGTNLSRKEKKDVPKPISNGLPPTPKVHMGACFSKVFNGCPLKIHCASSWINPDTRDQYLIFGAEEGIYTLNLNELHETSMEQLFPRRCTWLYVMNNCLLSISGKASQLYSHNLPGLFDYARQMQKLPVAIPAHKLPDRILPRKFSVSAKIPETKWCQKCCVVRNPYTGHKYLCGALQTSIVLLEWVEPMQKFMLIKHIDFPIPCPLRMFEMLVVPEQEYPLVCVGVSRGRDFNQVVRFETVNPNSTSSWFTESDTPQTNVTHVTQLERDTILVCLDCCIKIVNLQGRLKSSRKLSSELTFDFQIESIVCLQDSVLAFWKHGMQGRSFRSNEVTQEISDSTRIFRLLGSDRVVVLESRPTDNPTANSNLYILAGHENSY

[9] = target: Mitogen-activated protein kinase kinase kinase kinase 5 (Homo sapiens, UniProt Q9Y4K4)
Chain of Mitogen-activated protein kinase kinase kinase kinase 5 (Q9Y4K4 whole entry): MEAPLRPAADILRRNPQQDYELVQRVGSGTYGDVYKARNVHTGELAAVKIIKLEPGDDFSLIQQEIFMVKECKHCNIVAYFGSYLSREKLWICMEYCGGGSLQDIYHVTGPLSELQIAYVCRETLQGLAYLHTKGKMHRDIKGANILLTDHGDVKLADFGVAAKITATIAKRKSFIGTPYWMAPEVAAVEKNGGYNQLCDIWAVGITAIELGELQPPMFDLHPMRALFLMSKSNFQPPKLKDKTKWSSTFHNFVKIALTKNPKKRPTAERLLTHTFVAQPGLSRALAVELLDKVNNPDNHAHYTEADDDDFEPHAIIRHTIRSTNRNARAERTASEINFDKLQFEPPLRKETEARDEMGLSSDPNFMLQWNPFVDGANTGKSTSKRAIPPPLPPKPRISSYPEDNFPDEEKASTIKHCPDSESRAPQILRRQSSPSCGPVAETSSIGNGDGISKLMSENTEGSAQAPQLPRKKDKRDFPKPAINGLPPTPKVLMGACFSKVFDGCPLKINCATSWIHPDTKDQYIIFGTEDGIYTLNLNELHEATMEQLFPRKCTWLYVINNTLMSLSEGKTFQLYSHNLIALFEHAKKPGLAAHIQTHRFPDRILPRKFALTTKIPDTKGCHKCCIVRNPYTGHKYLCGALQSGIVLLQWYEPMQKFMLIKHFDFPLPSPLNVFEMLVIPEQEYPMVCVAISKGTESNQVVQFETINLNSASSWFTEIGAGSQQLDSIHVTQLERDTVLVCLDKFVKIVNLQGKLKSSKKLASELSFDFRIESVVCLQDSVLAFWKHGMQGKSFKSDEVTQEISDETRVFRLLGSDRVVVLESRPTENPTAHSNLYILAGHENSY

[10] = target: Mitogen-activated protein kinase 10 (Homo sapiens, UniProt P53779)
Chain of Mitogen-activated protein kinase 10 (P53779 whole entry): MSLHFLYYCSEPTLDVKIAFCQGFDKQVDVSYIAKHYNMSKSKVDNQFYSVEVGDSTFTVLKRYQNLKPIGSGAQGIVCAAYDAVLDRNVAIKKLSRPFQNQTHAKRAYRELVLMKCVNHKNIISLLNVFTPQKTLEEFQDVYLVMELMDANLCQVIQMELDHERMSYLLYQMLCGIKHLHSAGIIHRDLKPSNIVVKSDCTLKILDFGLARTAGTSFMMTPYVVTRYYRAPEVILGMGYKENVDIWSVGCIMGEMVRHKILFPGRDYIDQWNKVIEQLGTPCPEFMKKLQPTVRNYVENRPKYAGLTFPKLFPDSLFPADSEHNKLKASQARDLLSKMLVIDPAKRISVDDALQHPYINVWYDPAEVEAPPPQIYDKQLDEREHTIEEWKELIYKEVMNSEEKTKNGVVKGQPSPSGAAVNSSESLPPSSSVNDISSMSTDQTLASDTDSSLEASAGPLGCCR

[11] = target: MAP kinase-activated protein kinase 2 (Homo sapiens, UniProt P49137)
Chain of MAP kinase-activated protein kinase 2 (P49137 whole entry): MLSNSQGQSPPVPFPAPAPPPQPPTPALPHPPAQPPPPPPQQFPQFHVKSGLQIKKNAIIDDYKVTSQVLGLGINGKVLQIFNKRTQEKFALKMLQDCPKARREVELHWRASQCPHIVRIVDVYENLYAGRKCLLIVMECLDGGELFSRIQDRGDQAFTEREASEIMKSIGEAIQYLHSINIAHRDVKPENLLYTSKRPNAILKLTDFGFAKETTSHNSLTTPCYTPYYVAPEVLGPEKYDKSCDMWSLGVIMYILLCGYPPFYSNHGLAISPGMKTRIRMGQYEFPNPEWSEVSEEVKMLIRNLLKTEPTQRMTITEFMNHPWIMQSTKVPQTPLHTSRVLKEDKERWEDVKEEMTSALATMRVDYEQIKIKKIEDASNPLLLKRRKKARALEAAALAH

[12] = target: T3, Bifunctional phosphoribosylaminoimidazole carboxylase/phosphoribosylaminoimidazole succinocarboxamide synthetase (Homo sapiens, UniProt P22234)
T3 sequence (P22234 whole entry): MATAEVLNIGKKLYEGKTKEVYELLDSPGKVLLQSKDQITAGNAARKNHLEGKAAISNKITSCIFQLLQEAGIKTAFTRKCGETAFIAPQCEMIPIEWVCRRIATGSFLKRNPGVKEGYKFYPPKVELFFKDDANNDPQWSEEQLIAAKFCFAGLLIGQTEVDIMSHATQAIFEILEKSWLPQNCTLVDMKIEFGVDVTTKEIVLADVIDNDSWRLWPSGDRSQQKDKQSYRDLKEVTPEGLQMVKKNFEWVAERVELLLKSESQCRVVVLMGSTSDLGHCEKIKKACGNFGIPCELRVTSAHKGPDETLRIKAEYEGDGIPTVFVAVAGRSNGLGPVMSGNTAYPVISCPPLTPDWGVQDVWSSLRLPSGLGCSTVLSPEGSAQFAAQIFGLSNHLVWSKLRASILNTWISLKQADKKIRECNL

[13] = target: Serine/threonine-protein kinase pim-1 (Homo sapiens, UniProt P11309)
Chain of Serine/threonine-protein kinase pim-1 (P11309 whole entry): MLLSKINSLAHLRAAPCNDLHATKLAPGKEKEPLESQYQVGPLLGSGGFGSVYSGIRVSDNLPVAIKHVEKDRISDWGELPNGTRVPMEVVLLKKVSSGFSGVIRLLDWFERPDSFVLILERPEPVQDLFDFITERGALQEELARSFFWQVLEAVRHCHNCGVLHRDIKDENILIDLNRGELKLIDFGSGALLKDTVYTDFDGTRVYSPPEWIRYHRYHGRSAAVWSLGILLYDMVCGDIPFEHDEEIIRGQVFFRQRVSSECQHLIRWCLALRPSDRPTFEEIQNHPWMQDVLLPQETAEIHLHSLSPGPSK

[14] = target: Structural maintenance of chromosomes protein 2 (Homo sapiens, UniProt O95347)
[15] = target: T4, Uncharacterized protein FLJ45252 (Homo sapiens, UniProt Q6ZSR9); settings: read-out: Kd apparent; k-562, colo 205, sk-n-be(2) and mv-4-11
T4 sequence (Q6ZSR9 whole entry): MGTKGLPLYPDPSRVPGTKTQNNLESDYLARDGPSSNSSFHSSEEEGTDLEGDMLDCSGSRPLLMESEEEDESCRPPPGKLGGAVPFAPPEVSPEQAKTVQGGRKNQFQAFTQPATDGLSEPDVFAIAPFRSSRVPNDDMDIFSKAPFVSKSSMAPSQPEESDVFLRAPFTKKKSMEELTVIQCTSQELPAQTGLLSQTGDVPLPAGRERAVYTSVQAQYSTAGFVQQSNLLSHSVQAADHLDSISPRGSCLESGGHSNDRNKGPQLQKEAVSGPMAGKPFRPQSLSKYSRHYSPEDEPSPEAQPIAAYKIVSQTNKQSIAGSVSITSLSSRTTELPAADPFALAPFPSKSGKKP

Measured: Kd
Also: in the data inactive means no Kd found up to 30 µM.

Chain of Calcium/calmodulin-dependent protein kinase type II subunit gamma (Q13555 whole entry): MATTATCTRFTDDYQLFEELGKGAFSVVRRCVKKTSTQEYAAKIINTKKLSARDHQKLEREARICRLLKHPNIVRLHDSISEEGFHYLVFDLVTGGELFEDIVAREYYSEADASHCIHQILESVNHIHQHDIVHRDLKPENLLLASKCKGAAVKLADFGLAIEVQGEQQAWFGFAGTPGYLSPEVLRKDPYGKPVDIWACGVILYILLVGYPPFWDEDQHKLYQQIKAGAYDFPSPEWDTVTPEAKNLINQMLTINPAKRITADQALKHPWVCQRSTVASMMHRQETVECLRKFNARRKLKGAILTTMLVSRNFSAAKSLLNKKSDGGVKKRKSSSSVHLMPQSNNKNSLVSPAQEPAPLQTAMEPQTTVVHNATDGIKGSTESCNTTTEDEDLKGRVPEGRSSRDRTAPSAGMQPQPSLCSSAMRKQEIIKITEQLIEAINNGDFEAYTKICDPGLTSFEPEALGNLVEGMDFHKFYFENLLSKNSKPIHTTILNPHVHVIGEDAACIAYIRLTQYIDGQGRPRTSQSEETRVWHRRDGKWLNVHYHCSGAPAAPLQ
Chain of Atypical kinase COQ8A, mitochondrial (Q8NI60 whole entry): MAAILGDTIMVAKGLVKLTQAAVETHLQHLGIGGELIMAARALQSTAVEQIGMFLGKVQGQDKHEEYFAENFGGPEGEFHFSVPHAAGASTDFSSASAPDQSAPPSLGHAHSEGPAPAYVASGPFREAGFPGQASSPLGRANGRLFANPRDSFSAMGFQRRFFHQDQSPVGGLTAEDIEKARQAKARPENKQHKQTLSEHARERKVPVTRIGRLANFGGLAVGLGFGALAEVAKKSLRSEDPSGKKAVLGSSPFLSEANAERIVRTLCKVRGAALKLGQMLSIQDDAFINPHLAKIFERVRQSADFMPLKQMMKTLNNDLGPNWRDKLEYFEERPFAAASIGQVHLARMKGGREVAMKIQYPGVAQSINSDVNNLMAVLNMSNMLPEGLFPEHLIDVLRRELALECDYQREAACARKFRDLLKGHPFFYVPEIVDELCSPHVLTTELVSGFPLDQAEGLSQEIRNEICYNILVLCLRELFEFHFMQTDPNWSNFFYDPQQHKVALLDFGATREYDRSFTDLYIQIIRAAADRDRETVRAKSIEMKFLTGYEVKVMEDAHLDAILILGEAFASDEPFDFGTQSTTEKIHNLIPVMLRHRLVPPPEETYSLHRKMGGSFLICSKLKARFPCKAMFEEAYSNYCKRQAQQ

C=CC(=O)N1CCC(Oc2cc3c(Nc4ccc(Cl)c(Cl)c4F)ncnc3cc2OC)CC1 [POZIOTINIB]
inactive: [1] > 30 µM | [2] > 30 µM | [3] > 30 µM | [4] > 30 µM | [5] > 30 µM | [6] > 30 µM | [7] > 30 µM | [8] > 30 µM | [9] > 30 µM | [10] > 30 µM | [11] > 30 µM | [12] > 30 µM | [13] > 30 µM | [14] > 30 µM | [15] > 30 µM

Cc1ccc(-n2nc(C(C)(C)C)cc2NC(=O)NCc2cc(F)ccc2Oc2ccc3c(cnn3CCO)c2)cc1 [PEXMETINIB]
active: [4] 4.16 µM | [5] 0.363 µM | [7] 1.55 µM | [11] 0.067 µM
inactive: [1] > 30 µM | [2] > 30 µM | [3] > 30 µM | [6] > 30 µM | [8] > 30 µM | [9] > 30 µM | [12] > 30 µM | [13] > 30 µM | [14] > 30 µM | [15] > 30 µM
0.195 µM: [10]

Cn1cc(-c2ccc(F)c(C(F)(F)F)c2)nc1C1CCN(c2ncnc3[nH]ncc23)CC1 [LY-2584702]
inactive: [1] > 30 µM | [2] > 30 µM | [3] > 30 µM | [4] > 30 µM | [5] > 30 µM | [6] > 30 µM | [7] > 30 µM | [8] > 30 µM | [9] > 30 µM | [10] > 30 µM | [11] > 30 µM | [12] > 30 µM | [13] > 30 µM | [14] > 30 µM | [15] > 30 µM

CC(C)Nc1cc(-c2c[nH]c(C(=O)N[C@H](CO)c3cccc(Cl)c3)c2)c(Cl)cn1 [ULIXERTINIB]
inactive: [1] > 30 µM | [2] > 30 µM | [3] > 30 µM | [4] > 30 µM | [5] > 30 µM | [6] > 30 µM | [7] > 30 µM | [8] > 30 µM | [9] > 30 µM | [10] > 30 µM | [11] > 30 µM | [12] > 30 µM | [13] > 30 µM | [14] > 30 µM | [15] > 30 µM

CN1CC[C@@H](c2c(O)cc(O)c3c(=O)cc(-c4ccccc4Cl)oc23)[C@@H]1CO
inactive: [1] > 30 µM | [2] > 30 µM | [4] > 30 µM | [5] > 30 µM | [6] > 30 µM | [7] > 30 µM | [8] > 30 µM | [9] > 30 µM | [10] > 30 µM | [11] > 30 µM | [12] > 30 µM | [13] > 30 µM | [14] > 30 µM | [15] > 30 µM
active: [3] 1.34 µM

Cc1ccc(S(=O)(=O)Nc2nc3ccccc3nc2Nc2ccc3nsnc3c2)cc1
inactive: [1] > 30 µM | [2] > 30 µM | [3] > 30 µM | [4] > 30 µM | [5] > 30 µM | [6] > 30 µM | [7] > 30 µM | [8] > 30 µM | [9] > 30 µM | [10] > 30 µM | [11] > 30 µM | [12] > 30 µM | [13] > 30 µM | [14] > 30 µM | [15] > 30 µM

COC(=O)N[C@@H](C)CNc1nccc(-c2cn(C(C)C)nc2-c2cc(Cl)cc(NS(C)(=O)=O)c2F)n1 [ENCORAFENIB]
active: [11] 14.7 µM
inactive: [1] > 30 µM | [2] > 30 µM | [3] > 30 µM | [4] > 30 µM | [5] > 30 µM | [6] > 30 µM | [7] > 30 µM | [8] > 30 µM | [9] > 30 µM | [10] > 30 µM | [12] > 30 µM | [13] > 30 µM | [14] > 30 µM | [15] > 30 µM

CCS(=O)(=O)N1CC(CC#N)(n2cc(-c3ncnc4[nH]ccc34)cn2)C1 [BARICITINIB]
inactive: [1] > 30 µM | [2] > 30 µM | [4] > 30 µM | [5] > 30 µM | [6] > 30 µM | [7] > 30 µM | [8] > 30 µM | [9] > 30 µM | [10] > 30 µM | [11] > 30 µM | [12] > 30 µM | [13] > 30 µM | [14] > 30 µM
active: [3] 0.243 µM | [15] 0.078 µM

Cc1c(F)cc(C(=O)NC2CC2)cc1-c1ccc(C(=O)NCC(C)(C)C)cn1 [LOSMAPIMOD]
active: [11] 0.027 µM
inactive: [1] > 30 µM | [2] > 30 µM | [3] > 30 µM | [4] > 30 µM | [5] > 30 µM | [6] > 30 µM | [7] > 30 µM | [8] > 30 µM | [9] > 30 µM | [10] > 30 µM | [12] > 30 µM | [13] > 30 µM | [14] > 30 µM | [15] > 30 µM

CO[C@H]1C[C@@H]2CC[C@@H](C)[C@@](O)(O2)C(=O)C(=O)N2CCCC[C@H]2C(=O)O[C@H]([C@H](C)C[C@@H]2CC[C@@H](OCCO)[C@H](OC)C2)CC(=O)[C@H](C)/C=C(\C)[C@@H](O)[C@@H](OC)C(=O)[C@H](C)C[C@H](C)/C=C/C=C/C=C/1C [EVEROLIMUS]
inactive: [1] > 30 µM | [2] > 30 µM | [3] > 30 µM | [4] > 30 µM | [5] > 30 µM | [6] > 30 µM | [7] > 30 µM | [8] > 30 µM | [9] > 30 µM | [10] > 30 µM | [11] > 30 µM | [12] > 30 µM | [13] > 30 µM | [14] > 30 µM | [15] > 30 µM
